# From patent US10604490B2, “Processes for preparing ASK1 inhibitors” (Gilead Sciences, Inc., priority 2014, dated 2020)
# Like-named read-outs stand apart in the source and are kept apart here.
# Legend:
# [1] = Hydrate screen: solubility in EtOH/water mixtures with different water activities; assay type: physicochemical; conditions: thermodynamic from solid, slurry at room temperature
# Procedure: A hydrate screen of Compound of Formula (D) was performed using a mixture of anhydrous forms of Compound of Formula (D) Form II and of Compound of Formula (D) Form I and EtOH/water solvent mixtures with different water activities (Table 1). Compound of Formula (D) Form II and Compound of Formula (D) Form I (about 20 to about 40 mg) was slurried in about 1 mL of EtOH/water or water. Samples were analyzed after about 1 day and after about 2 weeks of equilibration at room temperature. Pure anhydrous Compound of Formula (D) Form I was obtained after 1 day in mixtures with about 0.2 to about 0.4 water activity. However, after 2 weeks of equilibration a new form was obtained in EtOH/water with 0.4 water activity. This form was designated as Compound of Formula (D) Form III. Compound of Formula (D) hydrate Form I was obtained in solvents with about 0.5 to about 1.0 water activity after 1 day and after about 2 weeks.
# [2] = DVS analysis (moisture uptake); assay type: physicochemical; conditions: at 90% RH
# Procedure: Compound of Formula (D) Form I was obtained after the isothermal hold of Compound of Formula (D) hydrate Form I at about 150° C. Compound of Formula (D) Form I was also obtained after KF analysis of Compound of Formula (D) Form II and Compound of Formula (D) Form I at about 180° C. Slurries of Compound of Formula (D) hydrate Form I in water miscible organic solvents also afforded Compound of Formula (D) Form I (MeCN, MeOH, EtOH, IPA, acetone, and THF). […] (FIG. 10). DSC thermogram afforded single endotherm with onset at about 252° C. (FIG. 11). […] No form change was observed after DVS.
# [3] = slurry at room temperature
# Procedure: (§1) A stable form screen of Compound of Formula (D) hydrate Form I was performed in an attempt to determine the stability of Compound of Formula (D) hydrate Form I in different organic solvents. […] Compound of Formula (D) hydrate Form I (about 50 to about 60 mg) was slurried in about 1 mL of chosen solvent. Solids were analyzed by XRPD after about 1 day and about 2 weeks of equilibration at room temperature.
# as §1, with “in” for “in about”, “after” for “after about”, “and” for “and about”
structure (smiles),measurement,setting,value
Cc1cc(F)c(C(=O)O)cc1-n1cnc(C2CC2)c1 [5-(4-cyclopropyl-1H-imidazol-1-1-2-fluoro-4-methylbenzoic acid],Solubility,"[1]; EtOH/water solvent mixture, aqueous with cosolvent or surfactant or cyclodextrin, EtOH/water, water activity 0.9 (water 0.825 mL, EtOH 0.175 mL)",3930 µg/mL
same,Solubility,"[1]; EtOH/water solvent mixture, organic solvent or mixture, EtOH/water, water activity 0.2 (water 0.031 mL, EtOH 0.969 mL)",7270 µg/mL
same,Solubility,"[1]; EtOH/water solvent mixture, organic solvent or mixture, EtOH/water, water activity 0.3 (water 0.066 mL, EtOH 0.934 mL)",8060 µg/mL
same,Solubility,"[1]; EtOH/water solvent mixture, organic solvent or mixture, EtOH/water, water activity 0.4 (water 0.077 mL, EtOH 0.923 mL)",7860 µg/mL
same,Solubility,"[1]; EtOH/water solvent mixture, organic solvent or mixture, EtOH/water, water activity 0.5 (water 0.097 mL, EtOH 0.903 mL)",8160 µg/mL
same,Solubility,"[1]; EtOH/water solvent mixture, organic solvent or mixture, EtOH/water, water activity 0.6 (water 0.149 mL, EtOH 0.851 mL)",6590 µg/mL
same,Solubility,"[1]; EtOH/water solvent mixture, organic solvent or mixture, EtOH/water, water activity 0.7 (water 0.263 mL, EtOH 0.737 mL)",6880 µg/mL
same,Solubility,"[1]; EtOH/water solvent mixture, organic solvent or mixture, EtOH/water, water activity 0.8 (water 0.481 mL, EtOH 0.519 mL)",6560 µg/mL
same,Solubility,"[1]; water, water activity 1.0 (water 1.0 mL, EtOH 0)",3320 µg/mL
Cc1cc(F)c(C(=O)O)cc1-n1cnc(C2CC2)c1 [Compound of Formula (D) Form I],moisture uptake (DVS; slightly hygroscopic),[2],about 0.5%
Cc1cc(F)c(C(=O)O)cc1-n1cnc(C2CC2)c1.O [Compound of Formula (D) Hydrate Form I],Solubility,[3]; solvent 2-MeTHF,4480 µg/mL
same,Solubility,[3]; solvent Acetone,1990 µg/mL
same,Solubility,[3]; solvent DCM,190 µg/mL
same,Solubility,[3]; solvent EtOAc,730 µg/mL
same,Solubility,[3]; solvent EtOH,6180 µg/mL
same,Solubility,[3]; solvent IPA,2900 µg/mL
same,Solubility,[3]; solvent IPAc,450 µg/mL
same,Solubility,[3]; solvent MeCN,400 µg/mL
same,Solubility,[3]; solvent MeOH,20670 µg/mL
same,Solubility,[3]; solvent THF,11790 µg/mL
